Usually IC50 stands for the concentration needed to halve the response being measured. Read a high IC50 as lower potency.

The experiment deals with T1, CTP synthase 1 (Homo sapiens, UniProt P17812).
T1 sequence (P17812 whole entry): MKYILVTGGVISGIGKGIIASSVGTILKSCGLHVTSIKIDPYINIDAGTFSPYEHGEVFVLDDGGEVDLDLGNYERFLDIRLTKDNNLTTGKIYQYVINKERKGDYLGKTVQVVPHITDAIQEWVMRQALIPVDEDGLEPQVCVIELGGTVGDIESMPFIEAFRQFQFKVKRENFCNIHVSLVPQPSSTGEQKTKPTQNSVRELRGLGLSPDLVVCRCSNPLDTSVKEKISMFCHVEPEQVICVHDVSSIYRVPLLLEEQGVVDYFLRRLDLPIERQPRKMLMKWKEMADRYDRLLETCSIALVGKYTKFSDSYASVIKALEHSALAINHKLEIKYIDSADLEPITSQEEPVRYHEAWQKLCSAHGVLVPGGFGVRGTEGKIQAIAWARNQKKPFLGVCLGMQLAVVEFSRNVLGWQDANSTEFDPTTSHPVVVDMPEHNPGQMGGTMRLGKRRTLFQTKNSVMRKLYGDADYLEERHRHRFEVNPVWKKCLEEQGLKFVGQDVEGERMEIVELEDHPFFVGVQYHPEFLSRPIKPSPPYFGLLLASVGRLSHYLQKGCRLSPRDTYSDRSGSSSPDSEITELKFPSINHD
The experiment can be described thus: hCTPS1 Biochemical Assay. As for the experimental part: Purified human CTPS1 protein was prepared in 1× assay buffer to the final working protein concentration required for the reaction. A 2.5 uL volume per well of human CTPS1 protein was mixed with 0.1 uL per well of test compound dissolved in DMSO and pre-incubated at 25 degrees C. for 10 minutes. 2.5 uL per well of the reaction precursors ATP (UltraPure ATP from ADP-Glo™ kit) and UTP were then added and pre-incubated for an additional 10 minutes at 25 degrees C. Finally, the reaction was initiated by the addition of 5 uL of the reaction precursors L-glutamine and GTP. The final concentration of all reaction components in the assay: ATP (120 uM), UTP (160 uM), GTP (60 uM), L-Glutamine (100 uM), DMSO (1%), hCTPS1 (25 nM). This mixture was incubated for an appropriate amount of time within the determined linear phase of the reaction at 25 degrees C. under sealed plate conditions with constant agitation at 500 revolutions per minute (rpm). ADP-Glo™ reagent was added for 60 minutes (10 uL per well) and subsequently ADP-Glo™ development reagent was added for 60 minutes (20 uL per well) prior to signal detection in a microplate reader (Envision Multilabel Reader, Perkin Elmer). Following each reagent addition over the course of the assay, assay plates were pulse centrifuged for 1 minute at 1000 rpm.
Turning to `CCc1c[nH]c2ncc(-c3ccc(C(=O)NCc4cc(NS(=O)(=O)C5CC5)ccn4)cc3)cc12` [US12331046, Compound I-38], the IC50 is < 100 nM.

Regarding `CCOc1cncc(-c2cnc(C(=O)NCc3cccc(NS(=O)(=O)C(F)F)c3)s2)n1` [US12331046, Compound I-61], the IC50 is < 100 nM.

Regarding `CCOc1cncc(-c2cnc(C(=O)NCc3cc(F)cc(NS(=O)(=O)C4CC4)c3)s2)n1` [US12331046, Compound I-256], the IC50 was < 100 nM.

Regarding `CCOc1cncc(-c2ccc(C(=O)NC(C#N)c3cc(NS(=O)(=O)C4CC4)ccn3)cc2)n1` (stereo not given) [US12331046, Compound I-64], the IC50 was < 100 nM.

With `CCOc1cncc(-c2nnc(C(=O)N[C@H](CC)c3cc(NS(=O)(=O)C4CC4)ccn3)s2)n1` [US12331046, Compound I-240], the IC50 is < 100 nM.

(Values after BindingDB's records for patent US12331046 (Nimbus Clotho, 2025).)
